Data taken from patent publication US20250129104A1, “7H-PYRROLO[2,3-D]PYRIMIDINES AND PREPARATION AND USES THEREOF” (BioSplice Therapeutics, Inc., priority 2021, published 2025).

What was measured:
[1] = target: recombinant DYRK1A kinase (Homo sapiens (Human), UniProt Q13627); test: DYRK1A kinase assay (Ser/Thr 18 peptide Z-lyte FRET assay); type: biochemical; details: DYRK1A kinase activity; 15 μM ATP, 1 h room temperature; method text calls the value IC50
Method in brief: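 Recombinant human DYRK1A (0.25 μg/mL) with 15 μM ATP and 4 μM Ser/Thr 18 peptide, 1 h at room temperature with compound (11-point, 1:3, 10 μM top, duplicate). Z-lyte development 1 h, then coumarin/fluorescein FRET emission ratio converted to % phosphorylation; IC50 by non-linear regression.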

[2] = system: Tau phosphorylation at Thr212 (pThr212); test: tau phosphorylation assay: phosphoTau (Thr212) AlphaLISA in HEK293T cells transfected with DYRK1A and MAPT; type: cell-based; details: HEK-293T; HEK293T cells transfected with human DYRK1A and MAPT; 18-24 h compound treatment; read-out: pTau (Thr212) EC50
Experimental: Representative compounds were screened using the assay procedure for tau phosphorylation activity described below.
HEK293T cells (ATCC, CRL3216) cultured in DMEM (Thermo Fisher Scientific, 10566024) supplemented with 10% FBS (Corning, 35-011-CV) and Penicillin/Streptomycin (Thermo Fisher Scientific, 15140163) were seeded in a 75 cm^2 flask at 8.1×10^6 cells/flask. The HEK293T cells were then transiently transfected with 5 μg DYRK1A (NM_001396) human untagged clone (OriGene, SC314641) and 2.5 μg MAPT (441 a.a. Tau gene) (NM_005910) human untagged clone (OriGene, TP313312) using Lipofectamine 3000 (Thermo Fisher Scientific, L30000015) and incubated for 20-30 hours in a humidified incubator at 37° C. and 5% CO2. Post-incubation, HEK293T cells transfected with the DYRK1A and MAPT expression vectors were harvested and seeded in BioCoat poly-D lysine coated 96-well plates (Corning, 354461) at 3×10^4 cells/well.
The above synthesized compounds were screened using the cell assay procedure to assess decreased Tau phosphorylation at Thr212 (pThr212) described below.
Each compound was dissolved in DMSO (Sigma-Aldrich, D8418-100 mL) as a 10 mM stock. 10 mM stocks were serially diluted 1:3, 10-point dose-response curve and added to the cells with a final concentration ranging from 20 μM to 1.1 nM. Cell were treated with compounds in duplicate and incubated for 18-24 hours in a humidified incubator at 37° C. and 5% CO2.
Following the overnight compound treatment, cells were lysed with 1× Alpha Surefire Ultra Lysis Buffer (Perkin Elmer, ALSU-LB-100ML) complemented with 1× Halt Phosphatase Inhibitor Cocktail (Thermo Fisher Scientific, 78427) and 1× Halt Protease Inhibitor Cocktail (Thermo Fisher Scientific, 78438). Lysates were spun down at 12,000 g for 10 min to remove any cellular debris and 5 μL of lysates were dispensed into a 384-well Opti-Plate (Perkin Elmer, 6007290) for the measurement of Tau phosphorylation in the phosphoTau (Thr212) AlphaLISA assay. Donor antibody, biotinylated HT7Tau (Thermo Fisher Scientific, MN1000B), and acceptor antibody, pThr212Tau (Thermo Fisher Scientific, 44740G) were both added to the cell lysates at a final concentration of 3 nM and incubated for 1 hour at room temperature. Following incubation of the lysates with the donor and acceptor antibodies, anti-rabbit IgG (Fc specific) AlphaLISA acceptor beads (Perkin Elmer, AL104C) were added at a 10 μg/mL final concentration and incubated for 1 hour at room temperature protected from light. Lastly, AlphaScreen streptavidin donor beads (PerkinElmer, 6760002) were added at 40 μg/mL final concentration and incubated for 1 hour at room temperature protected from light. Plates were read at […], and Em=615 nm on the EnVision Multilabel Plate Reader (Perkin Elmer). PhosphoTau (Thr212) AlphaLISA signal was used to plot, draw the curve fitting, and determine each compound's EC50 in Prism (GraphPad).

Compound | EC50 [1] [µM] | EC50 [2] [µM]
CC(C)(F)CNc1ncc2c(-c3ccc4ncc(C(F)F)n4c3)c[nH]c2n1 [Compound 329, 5-(3-(difluoromethyl)imidazo[1,2-a]pyridin-6-yl)-N-(2-fluoro-2-methylpropyl)-7H-pyrrolo[2,3-d]pyrimidin-2-amine] | 0.0068 | 0.211
O=C(NCC(F)F)c1cnc2ccc(-c3c[nH]c4nc(C5CC5)ncc34)cn12 [Compound 407, 6-(2-Cyclopropyl-7H-pyrrolo[2,3-d]pyrimidin-5-yl)-N-(2,2-difluoroethyl) imidazo[1,2-a]pyridine-3-carboxamide] | 0.0012 | 0.011
CC(C)Cc1ncc2c(-c3cnc4nccn4c3)c[nH]c2n1 [Compound 448, 5-(Imidazo[1,2-a]pyrimidin-6-yl)-2-isobutyl-7H-pyrrolo[2,3-d]pyrimidine] | 0.0093 | 0.245
FC(F)(F)CCc1ncc2c(-c3cnc4nccn4c3)c[nH]c2n1 [Compound 449, 5-(Imidazo[1,2-a]pyrimidin-6-yl)-2-(3,3,3-trifluoropropyl)-7H-pyrrolo[2,3-d]pyrimidine] | 0.0094 | 0.497
c1cn2cc(-c3c[nH]c4nc(C5CC5)ncc34)cnc2n1 [Compound 450, 2-Cyclopropyl-5-(imidazo[1,2-a]pyrimidin-6-yl)-7H-pyrrolo[2,3-d]pyrimidine] | 0.0161 | 0.98
c1cn2cc(-c3c[nH]c4nc(CC5CCC5)ncc34)cnc2n1 [Compound 452, 2-(Cyclobutylmethyl)-5-(imidazo[1,2-a]pyrimidin-6-yl)-7H-pyrrolo[2,3-d]pyrimidine] | 0.0202 | 1.22
CC(C)(F)CNc1ncc2c(-c3cnc4nccn4c3)c[nH]c2n1 [Compound 460, N-(2-Fluoro-2-methylpropyl)-5-(imidazo[1,2-a]pyrimidin-6-yl)-7H-pyrrolo [2,3-d]pyrimidin-2-amine] | 0.0015 | 0.057
C[C@@H](Nc1ncc2c(-c3cnc4nccn4c3)c[nH]c2n1)C1CC1 [Compound 469, (R)—N-(1-cyclopropylethyl)-5-(imidazo[1,2-a]pyrimidin-6-yl)-7H-pyrrolo [2,3-d]pyrimidin-2-amine] | 0.0076 | 0.246
COc1nc(CC(C)C)nc2[nH]cc(-c3cc(F)c4nc(C)n(C(C)C)c4c3)c12 [Compound 497, 5-(4-Fluoro-1-isopropyl-2-methyl-1H-benzo[d]imidazol-6-yl)-2-isobutyl-4-methoxy-7H-pyrrolo[2,3-d]pyrimidine] | 0.0092 | 0.433
Cc1nc2c(F)cc(-c3c[nH]c4nc(C5CC5)ncc34)cc2n1C(C)C [Compound 499, 2-Cyclopropyl-5-(4-fluoro-1-isopropyl-2-methyl-1H-benzo[d]imidazol-6-yl)-7H-pyrrolo[2,3-d]pyrimidine] | 0.006 | 0.296
Cc1nc2c(F)cc(-c3c[nH]c4nc(C5CCC5)ncc34)cc2n1C(C)C [Compound 500, 2-Cyclobutyl-5-(4-fluoro-1-isopropyl-2-methyl-1H-benzo[d]imidazol-6-yl)-7H-pyrrolo[2,3-d]pyrimidine] | 0.0198 | 0.338
Cc1nc2c(F)cc(-c3c[nH]c4nc(NCC(C)(C)C)ncc34)cc2n1C(C)C [Compound 507, 5-(4-Fluoro-1-isopropyl-2-methyl-1H-benzo[d]imidazol-6-yl)-N-neopentyl-7H-pyrrolo[2,3-d]pyrimidin-2-amine] | 0.0072 | 0.037
Cc1nc2c(F)cc(-c3c[nH]c4nc(C5CC5)ncc34)cc2n1C1CCN(C)CC1 [Compound 544, 2-Cyclopropyl-5-(4-fluoro-2-methyl-1-(1-methylpiperidin-4-yl)-1H-benzo[d]imidazol-6-yl)-7H-pyrrolo[2,3-d]pyrimidine] | 0.0122 | 0.408
Cc1nc2ncc(-c3c[nH]c4nc(C5CCC5)ncc34)cc2n1C(C)C [Compound 588, 6-(2-Cyclobutyl-7H-pyrrolo[2,3-d]pyrimidin-5-yl)-1-isopropyl-2-methyl-1H-imidazo[4,5-b]pyridine] | 0.025 | 1.47
Cc1nc2ccc(-c3c[nH]c4nc(NCC(C)(C)F)ncc34)nc2n1C [Compound 629, 5-(2,3-Dimethyl-3H-imidazo[4,5-b]pyridin-5-yl)-N-(2-fluoro-2-methylpropyl)-7H-pyrrolo[2,3-d]pyrimidin-2-amine] | 0.531 | 0.028
Cc1nc2ccc(-c3c[nH]c4nc(N[C@H](C)C(F)(F)F)ncc34)nc2n1CC(F)F [Compound 646, (R)-5-(3-(2,2-Difluoroethyl)-2-methyl-3H-imidazo[4,5-b]pyridin-5-yl)-N-(1,1,1-trifluoropropan-2-yl)-7H-pyrrolo[2,3-d]pyrimidin-2-amine] | 0.0056 | 0.006
Cc1nc2ccc(-c3c[nH]c4nc(CC(C)C)ncc34)nc2n1C(C)C [Compound 674, 5-(2-Isobutyl-7H-pyrrolo[2,3-d]pyrimidin-5-yl)-3-isopropyl-2-methyl-3H-imidazo[4,5-b]pyridine] | 0.0051 | 0.072
CC(C)Nc1ncc2c(-c3ccc4ncnn4c3)c[nH]c2n1 [Compound 726, 5-([1,2,4]Triazolo[1,5-a]pyridin-6-yl)-N-isopropyl-7H-pyrrolo[2,3-d]pyrimidin-2-amine] | 0.0224 | 0.815

Other lines, results leading:

EC50 [1] [µM] | EC50 [2] [µM] | Compound
0.0069 | 0.078 | CC(C)CNc1ncc2c(-c3ccc4ncnn4c3)c[nH]c2n1 [Compound 727, 5-([1,2,4]Triazolo[1,5-a]pyridin-6-yl)-N-isobutyl-7H-pyrrolo[2,3-d]pyrimidin-2-amine]
0.0336 | 0.504 | FC(F)CNc1ncc2c(-c3ccc4ncnn4c3)c[nH]c2n1 [Compound 730, 5-([1,2,4]Triazolo[1,5-a]pyridin-6-yl)-N-(2,2-difluoroethyl)-7H-pyrrolo[2,3-d]pyrimidin-2-amine]
0.0086 | 0.199 | CC(C)(F)CNc1ncc2c(-c3ccc4ncnn4c3)c[nH]c2n1 [Compound 731, 5-([1,2,4]Triazolo[1,5-a]pyridin-6-yl)-N-(2-fluoro-2-methylpropyl)-7H-pyrrolo[2,3-d]pyrimidin-2-amine]
0.0117 | 0.191 | CC(F)(F)CNc1ncc2c(-c3ccc4ncnn4c3)c[nH]c2n1 [Compound 732, 5-([1,2,4]Triazolo[1,5-a]pyridin-6-yl)-N-(2,2-difluoropropyl)-7H-pyrrolo [2,3-d]pyrimidin-2-amine]
0.0187 | 0.335 | C[C@@H](Nc1ncc2c(-c3ccc4ncnn4c3)c[nH]c2n1)C(F)(F)F [Compound 734, (R)-5-([1,2,4]Triazolo[1,5-a]pyridin-6-yl)-N-(1,1,1-trifluoropropan-2-yl)-7H-pyrrolo[2,3-d]pyrimidin-2-amine]
0.0326 | 0.265 | FC1(CNc2ncc3c(-c4ccc5ncnn5c4)c[nH]c3n2)CC1 [Compound 739, 5-([1,2,4]Triazolo[1,5-a]pyridin-6-yl)-N-((1-fluorocyclopropyl)methyl)-7H-pyrrolo[2,3-d]pyrimidin-2-amine]
0.022 | 0.226 | C[C@@H](Nc1ncc2c(-c3ccc4ncnn4c3)c[nH]c2n1)C1CC1 [Compound 740, (R)-5-([1,2,4]Triazolo[1,5-a]pyridin-6-yl)-N-(1-cyclopropylethyl)-7H-pyrrolo [2,3-d]pyrimidin-2-amine]
0.0065 | 0.213 | FC1(F)CC(Nc2ncc3c(-c4ccc5ncnn5c4)c[nH]c3n2)C1 [Compound 744, 5-([1,2,4]Triazolo[1,5-a]pyridin-6-yl)-N-(3,3-difluorocyclobutyl)-7H-pyrrolo [2,3-d]pyrimidin-2-amine]
